Test system: CCRF-CEM
Assay: Cytotoxicity tested in vitro against T-lymphoid leukemic cell line
Assay type: functional, cell-based
Conditions: Homo sapiens

SMILES | IC50 [nM]
CC(=O)[C@@]1(O)Cc2c3c(c(O)c(O)c2[C@H](OC2CC(N)C(O)C(C)O2)C1)C(=O)c1ccccc1C3=O (stereo partly drawn) | 1000
CC(=O)[C@]1(O)Cc2c3c(c(O)c(O)c2[C@@H](OC2CC(N)C(O)C(C)O2)C1)C(=O)c1ccccc1C3=O (stereo partly drawn) | 1000
COc1cccc2c1C(=O)c1c(O)c3c(c(O)c1C2=O)C[C@@](O)(C(=O)CO)C[C@@H]3O[C@H]1C[C@H](N)[C@H](O)[C@H](C)O1 [DOXORUBICIN] | 20

Source: ChEMBL document CHEMBL1128027, “Total synthesis of a novel benz[A]anthracycline analog of the antitumor agent 4-demethoxydaunorubicin” (Bioorg Med Chem Lett, 1994)
